Settings: for molar entropy: 101.33 kPa, Small (less than 1 g) adiabatic calorimetry

N[C@@H](Cc1c[nH]c2ccccc12)C(=O)O [L-tryptophan]
molar entropy [J/K/mol]
Settings	Crystal	Crystal 1
5 K	0.2245	–
10 K	1.663	–
15 K	4.49	–
20 K	8.314	–
25 K	12.64	–
30 K	17.46	–
35 K	22.45	–
40 K	27.52	–
45 K	32.59	–
50 K	37.66	–
60 K	47.73	–
70 K	57.7	–
79.2 K	66.6	66.6
80 K	–	67.26
90 K	–	76.16
100 K	–	84.89
110 K	–	93.54
120 K	–	102.02
130 K	–	110.25
140 K	–	118.48
150 K	–	126.63
160 K	–	134.61
170 K	–	142.59
180 K	–	150.49
190 K	–	158.39
200 K	–	166.21
210 K	–	174.02
220 K	–	181.75
230 K	–	189.49
240 K	–	197.22
250 K	–	204.87
260 K	–	212.6
270 K	–	220.33
280 K	–	228.07
290 K	–	235.72
298.15 K	–	242.03
300 K	–	243.45
310 K	–	251.1
320 K	–	258.75
330 K	–	266.31
340 K	–	273.88
350 K	–	281.53
360 K	–	289.09
370 K	–	296.66

Settings	Triple point temperature [K]
Crystal 2, Adiabatic calorimetry	79.2
